Reference: patent US6355649B1, “Method of treating seborrhea with 5-α reductase inhibitors” (priority 1993, dated 2002)

How the values were obtained:
[1] = system: DHT content in scalp tissue; assay: DHT content in scalp tissue after oral finasteride in men with male pattern baldness; assay type: in vivo; details: orally for 6 weeks, 0.2 mg/day, 1.0 mg/day and 5.0 mgs/day
Experimental: In another test, finasteride was orally administered for 6 weeks to men with male pattern baldness at doses of 0.2 mg/day, 1.0 mg/day and 5.0 mgs/day.

[2] = system: hair growth (androgenic alopecia); assay: Macrophotography and global photography procedure for detection of hair growth; assay type: in vivo, patients; details: dosages below 5 mg/day per patient, for example 1 mg/day or 0.2 mg/day; "it can be shown"
Experimental: Location: ID card Haircount target area
In these clinical photographs, the only variable allowed is the haircount. Film emulsion, lighting, framing, exposure, and reproduction ratios are held constant.
1. The haircount area on the patient is prepared as follows: A small (˜1 mm) dot tattoo is placed at the beginning of the study at the leading edge of the bald area directly anterior to the center of the vertex bald spot, using a commercial tattooing machine or manually (needle and ink). An area approximately one square inch in size, centered at the tattoo at the leading edge of the balding area, is clipped short (˜2 mm). Cut hairs are removed from the area to be photographed, using tape. Compressed air and/or ethanol wipes may also be used to facilitate removal of cut hairs.
2. […]
A trained technician places a transparency over the photographic print and, using a felt tip pen, places a black dot over each visible hair. The dot map transparency is then counted using image analysis with computer assistance.
Photographs are coded with a random number corresponding to study site, visit number and patient allocation number to insure blinding to time. At Month 6, baseline and Month 6 photographs are counted and data analyzed for interim analysis. At Month 12, baseline, Month 6 and Month 12 photographs are counted and data analyzed for the primary endpoint. […]

[3] = Solubility of finasteride polymorphic crystal forms; assay type: physicochemical; details: 25° C.
Experimental: Finasteride Form I can be prepared by dissolving finasteride in glacial acetic acid (ca. 100 mg/ml) and adding water with stirring until the weight % of water equals or exceeds 84%. The resulting solid phase is collected by filtration and dried under vacuum and at about 50° C. […] The x-ray powder diffraction pattern is characterized by d-spacings of 6.44, 5.69, 5.36, 4.89, 4.55, 4.31, 3.85, 3.59 and 3.14. […] The solubilities in water and cyclohexane at 25° C. are 0.05+0.02 and 0.27+0.05 mg/gm respectively. In addition, Form I of finasteride can be prepared by recrystallization from dry (H2O<1 mg/ml) ethyl acetate and isopropyl acetate. The isolated solids are dried under vacuum at about 50° C. and have the same physical characterization data as given above.
Form II of finasteride can be prepared by dissolving finasteride in glacial acetic acid (ca. 100 mg/ml) and adding water with stirring until the weight % of water equals about 75% but not in excess of 80%. The resulting solid phase is collected by filtration and dried under vacuum and at about 100° C. […] The x-ray powder diffraction pattern is characterized by d-spacings of 14.09, 10.36, 7.92, 7.18, 6.40, 5.93, 5.66, 5.31, 4.68, 3.90, 3.60 and 3.25. […] The solubilities in water and cyclohexane at 25° C. are 0.16+0.02 and 0.42+0.05 mg/gm respectively. In addition, Form II of finasteride can be prepared by recrystallization from ethyl acetate containing between 2 to 30 mg/ml of water and isopropyl acetate containing between 2 to 15 mg/ml of water. The isolated solids are dried under vacuum at about 80° C. and have the same physical characterization data as given above. Form II can also be prepared by heating Form I up to about 150° C., holding for about one hour and cooling back to room temperature. The Form II prepared in this manner has the same physical characterization data as given above.

SMILES: CC(C)(C)NC(=O)[C@H]1CC[C@H]2[C@@H]3CC[C@H]4NC(=O)C=C[C@]4(C)[C@H]3CC[C@]12C [finasteride, 17β-(N-tert-butylcarbamoyl)-4-aza-5α-androst-1-ene-3-one]
- DHT content in scalp tissue [1]: significant reduction
- hair growth / treatment of androgenic alopecia [2]: promote hair growth

SMILES: CC(C)(C)NC(=O)[C@H]1CCC2C3CCC4NC(=O)C=C[C@]4(C)C3CC[C@@]21C (stereo partly drawn) [Form I, 17β-(N-tert-butylcarbamoyl)-4-aza-5α-androst-1-ene-3-one]
- solubility in cyclohexane [3]: 0.27 ± 0.05 mg/gm
- solubility in water [3]: 0.05 ± 0.02 mg/gm

SMILES: CC(C)(C)NC(=O)[C@H]1CCC2C3CCC4NC(=O)C=C[C@]4(C)C3CC[C@@]21C (stereo partly drawn) [Form II, 17β-(N-tert-butylcarbamoyl)-4-aza-5α-androst-1-ene-3-one]
- solubility in cyclohexane [3]: 0.42 ± 0.05 mg/gm
- solubility in water [3]: 0.16 ± 0.02 mg/gm
